Results on six compounds are retold here after patent publication US10725042B2, “Methods of diagnosing and treating cancer” (Case Western Reserve University, priority 2012, dated 2020).

The test system of one data set is DLD1/UDG−/− cells. Briefly: Colony survival (clonogenic) assay, UDG−/− cells. Format: cell-based, human. The conditions noted are these: 5-FU 0-20 μM, temozolomide 0-1500 μM, cisplatin 0-40 μM. The protocol: Recombinant virus was grown in 293T cells and subsequently used to infect DLD1 cells. Selection of positively transfected clones was achieved by the addition of G418 to the culture medium. A second infection of transfected clones with Cre-recombinase adenovirus caused excision of the neomycin resistance cassette. Dflag cell line was produced by transfection of UDG expression vector in UDG^−/− cells to restore UDG activity.
Tumor cells (500-2000/dish) were plated and treated with pemetrexed (0-400 nM), 5-fluorouracil (0-20 μM), temozolomide (0-1500 μM), or cisplatin (0-40 μM). After 7 days, surviving colonies were stained with methylene blue for 30 min at room temperature and the colonies containing more than 50 cells were counted to generate survival curves.

The next data set deals with H1975 66 shUNG cells. Briefly: Colony survival assay, H1975 66 shUNG cells. Format: cell-based, human. The protocol:
(§1) For cells in suspension, colony survival was determined by crystal violet staining of colonies formed after 10-day exposure of 5×10^3 cells to pemetrexed in soft agar. For adherent cells, colony survival was determined by methylene blue staining of colonies formed after 10-day exposure of 100 cells to pemetrexed in 6-well culture dishes. Only colonies containing ≥50 cells were counted. Data points represent percent of colonies relative to untreated control averaged over 3 experiments.
UNG directed shRNA and siRNA plasmids were purchased from Origene. Transfection was carried out according to manufacturer specifications. Stably transfected clones (shRNA) were selected with puromycin with subsequent expansion of a well-isolated colony of cells.

The subject of the next data set is H1299/PR-1 cells. Briefly: Colony survival assay, H1299/PR-1 pemetrexed-resistant subline. The note with it: PR-1 and PR-2 cells. Format: cell-based, human. The method, then:
as §1
H1299 cells were exposed to step-wise increasing concentrations of pemetrexed over a period of 4 months. UNG expression was monitored in the bulk population at 2, 8, 12 and 16 weeks prior to administration of the induction dosage and at 24 weeks in a population of bulk chronically exposed cells that had been without pemetrexed for 8 weeks. H1299 cells capable of growth in 50 nM pemetrexed selection pressure were subcloned by limiting dilution in 96 well plates. Independent sublines were designated H1299/PR-1 and H1299/PR-2.

The test system of data set [1] is uracil in DNA of UDG−/− cells. Briefly: Uracil in DNA by HPLC/MS/MS, UDG−/− cells. Format: cell-based, human. The conditions noted are these: UDG−/− cells; drug 10 μM, 6-72 hr. The protocol:
UDG^−/− and UDG^+/+ cells were exposed to pemetrexed (10 μM) or 5-fluorouracil (10 μM) for 6, 24, 48 and 72 hrs. At indicated time points, cells were harvested and genomic DNA was extracted by phenol/chloroform. Forty μg of DNA were incubated with 10 U of purified UDG (New England Biolabs) in 60 μL of reaction buffer at 37° C. for 2 hrs. The reaction products were dried at 35° C. in a Turbovap under a stream of nitrogen and reconstituted in 150 μL 90% acetonitrile. The analyte was retained by an Atlantis Hilis Silica analytical column (2.1×100 mm, 3.5 μM) and eluted isocratically by a mixture of 90% acetonitrile and 10% 2.0 mM ammonium formate at a flow rate of 0.2 ml/min. The detection was done by an API 3200 MS/MS mass spectrometer.

The test system of a further data set is UNG−/− MEFs. The note with it: treated UNG−/− MEFs; cited from earlier work.
The subject of another data set is cell culture. Briefly: Tolerance of MX in cell culture. Format: cell-based. The note with it: MX at 3 mM.
For data set [2], the system named is 293t cells expressing the bacteriophage UNG inhibitor Ugi. The note with it: treated 293t cells expressing Ugi; cited from earlier work.

As to `O=c1[nH]cc(F)c(=O)[nH]1` [5-FU, 5-fluorouracil], the “differential sensitivity of UDG−/− vs UDG+/+ cells” value with DLD1/UDG−/− cells is given as “more sensitive”. Further, in the data set with H1975 66 shUNG cells, the “cross sensitivity of UNG deficient H1975 cells” value (from here on “cross sensitivity”) is listed as “some cross sensitivity”. Moreover, in the data set on H1299/PR-1 cells, the “cross-resistance of PR-1 and PR-2 cells” value is reported as “cross-resistance”. The “uracil detected in DNA” value in data set [1] is “greater retention of uracil”. Also, the increase in uracil with UNG−/− MEFs is on record as 1.5 fold.

Consider `O=c1[nH]c(=O)n([C@H]2C[C@H](O)[C@@H](CO)O2)cc1F` [FdUrd], for which the increase in uracil in the data set on UNG−/− MEFs is listed as 1.5 fold.

On to `CON` [MX, methoxyamine], for which the “tolerance in cell culture” value in the data set with cell culture is listed as “well tolerated”.

Consider `Cc1nc2ccc(CN(C)c3ccc(C(=O)N[C@@H](CCC(=O)O)C(=O)O)s3)cc2c(=O)[nH]1` [raltitrexed], for which, in the data set on H1975 66 shUNG cells, the “cross sensitivity” value was “some cross sensitivity”. In addition, in the data set on H1299/PR-1 cells, the “cross-resistance of PR-1 and PR-2 cells” value was “cross-resistance”. In addition, in data set [2], the increase in uracil was 8 fold.

Consider `Cc1cn([C@H]2C[C@H](O)[C@@H](CO)O2)c(=O)[nH]c1=O` [thymidine], for which the “effect of supplemental thymidine on pemetrexed sensitivity” value in the data set with H1975 66 shUNG cells (H1975 shUNG cells, 10 μM thymidine) is recorded as “rescued pemetrexed sensitivity”.

For `N.N.[Cl][Pt][Cl]` [cisplatin], in the data set on DLD1/UDG−/− cells, the “differential sensitivity of UDG−/− vs UDG+/+ cells” value is “no significant differential sensitivity”. The “cross sensitivity” value in the data set on H1975 66 shUNG cells is on record as “not”. Besides, the “cross-resistance of PR-1 and PR-2 cells” value in the data set on H1299/PR-1 cells is recorded as “not resistant”.
